Measured values: patent publication US20240109936A1, “NOVEL M[…] PEPTIDES” (University of Florida Research Foundation, Incorporated, priority 2020, published 2024)
Where a SMILES comes first, the peptide text is derived from it.

What was measured:
κ opioid receptor = biological target: T1, κ opioid receptor (Mus musculus, UniProt P33534); conditions: non-peptide KOR antagonists; cited from earlier work
T1 construct: host or cells: living animal (CNS), endogenous receptor

mice [1] = conditions: 3930 alone; place conditioning daily for 2 days; FIG. 33
Procedure: For conditioned place preference assay/reinstatement testing are conducted essentially as described for example in Brice-Tutt A C, Wilson L L, Eans S O, Stacy H M, Simons C A, Simpson G G, Coleman J S, Ferracane M J, Aldrich J V, McLaughlin J P: Multifunctional opioid receptor agonism and antagonism by a novel macrocyclic tetrapeptide prevents reinstatement of morphine-seeking behavior. British Journal of Pharmacology, 177(18):4209-4222, 2020. doi: 10.1111/bph.15165.

mice [2] = assay: Naloxone precipitated withdrawal (jumping behavior) in morphine-treated mice; format: in vivo, mouse; conditions: five days of morphine injections; 30 mg/kg, p.o. 1 hour prior to naloxone (10 mg/kg, s.c.); FIG. 35
Procedure: For naloxone precipitated withdrawal or 2-bottle choice (TBC) assay testing are conducted essentially as described for example in Wilson L L, Harris H M, Brice-Tutt A C, Cirino T J, Eans S O, Stacy H M, Simons C A, Sharma A, Leon J F, Boyer E W, Avery B A, McLaughlin J P, McCurdy C M: Lyophilized Kratom tea as a therapeutic option for opioid dependence. Drug and Alcohol Dependence, 216:108310-108318, 2020. https://doi.org/10.1016/j.drugalcdep.2020.108310; and as follows;

mice [3] = assay: Reinstatement of extinguished morphine conditioned place preference (forced swim stress- or morphine-induced); format: in vivo, mouse; conditions: 30 mg/kg, p.o., FIG. 34
mice [4] = assay: Forced swim stress-induced increase in morphine consumption, two-bottle choice assay; format: in vivo, mouse; conditions: orally administered, FIG. 13

T1 sequence (P33534 whole entry): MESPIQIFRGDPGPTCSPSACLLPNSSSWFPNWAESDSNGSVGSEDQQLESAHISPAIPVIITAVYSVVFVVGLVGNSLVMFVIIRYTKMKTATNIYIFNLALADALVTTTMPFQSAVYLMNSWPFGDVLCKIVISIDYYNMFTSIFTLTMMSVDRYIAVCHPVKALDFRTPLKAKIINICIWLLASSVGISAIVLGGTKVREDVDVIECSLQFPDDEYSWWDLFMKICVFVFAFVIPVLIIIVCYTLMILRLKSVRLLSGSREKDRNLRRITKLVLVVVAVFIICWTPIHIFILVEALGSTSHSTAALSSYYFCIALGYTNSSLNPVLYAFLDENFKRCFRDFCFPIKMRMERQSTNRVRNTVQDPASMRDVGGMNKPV

SMILES: N=C(N)Nc1ccc2[nH]c3c(c2c1)C[C@@]1(O)[C@H]2Cc4ccc(O)c5c4[C@@]1(CCN2CC1CC1)[C@H]3O5 [5-guanidinylnaltrindole]
- duration of antagonism (κ opioid receptor): unusually long duration of antagonism

SMILES: CC(C)[C@@H](CN1CC[C@@](C)(c2cccc(O)c2)[C@@H](C)C1)NC(=O)[C@H]1Cc2ccc(O)cc2CN1 [JDTic]
- duration of antagonism (κ opioid receptor): unusually long duration of antagonism

SMILES: O=C1N[C@H](Cc2ccccc2C(F)(F)F)C(=O)N[C@@H](Cc2ccccc2)C(=O)N2CCC[C@@H]2C(=O)N[C@H]1Cc1ccccc1 [compound 3930, cyclo[Phe-D-Pro-Phe-D-Phe(2-CF3)]] (HELM PEPTIDE1{F.[dP].F.[O=C([C@@H](Cc1ccccc1C(F)(F)F)N[*:1])[*:2]]}$PEPTIDE1,PEPTIDE1,1:R1-4:R2$$$V2.0)
- conditioned place preference or aversion (mice [1]): did not produce conditioned place preference or aversion
- frequency of jumping behavior following administration of naloxone (mice [2]): significantly reduced instances of jumping behavior
- stress- (forced swim stress, FSS) induced reinstatement of extinguished morphine-CPP (mice [3]; administered 5 min or 2.5 hr prior to FSS exposure): prevented stress-induced reinstatement of place preference
- drug-seeking behavior after an additional round of morphine-place conditioning (mice [3]; administered 5 min prior to additional round of morphine-place conditioning): no significant effect on drug-seeking behavior
- stress-induced increase in consumption of a morphine solution (mice [4]): can prevent a stress-induced increase in consumption of a morphine solution

SMILES: Oc1ccc2c3c1O[C@H]1c4[nH]c5c(c4C[C@@]4(O)[C@@H](C2)N(CC2CC2)CC[C@]314)C[C@@]1(O)[C@H]2Cc3ccc(O)c4c3[C@@]1(CCN2CC1CC1)[C@H]5O4 [nor-binaltorphimine]
- duration of antagonism (κ opioid receptor): unusually long duration of antagonism
